# Reference: paper PMC6001238, “Iterative Chemical Engineering of Vancomycin Leads to Novel Vancomycin Analogs With a High in Vitro Therapeutic Index” (Frontiers in Microbiology, 2018)
# Like-named read-outs stand apart in the source and are kept apart here.
# Legend:
# E. faecalis VSE 1 = experiment: MIC, broth microdilution, vancomycin-sensitive E. faecalis (VSE 1); format: cell-based, Enterococcus faecalis
# How it was run: (§1)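 Inhibitory concentrations were read by the CLSI broth microdilution procedure, with water and sterile broth as controls. One experiment added vancomycin (10 μM final) together with each analogue or reference antibiotic.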
# E. faecalis VRE 6 = experiment: MIC, broth microdilution, vancomycin-resistant E. faecalis VRE 6 (VanA); format: cell-based, Enterococcus faecalis
# How it was run: as §1
# E. faecalis VRE 53 = experiment: MIC, broth microdilution, vancomycin-resistant E. faecalis VRE 53 (VanA); format: cell-based, Enterococcus faecalis
# How it was run: as §1
# E. faecalis VRE 29 = experiment: MIC, broth microdilution, vancomycin-resistant E. faecalis VRE 29 (VanA); format: cell-based, Enterococcus faecalis
# How it was run: as §1
# E. faecalis VRE 37 = experiment: MIC, broth microdilution, vancomycin-resistant E. faecalis VRE 37 (VanA); format: cell-based, Enterococcus faecalis
# How it was run: as §1
# [1] = test system: Murine leukemia (L1210) cells; experiment: Cytostatic activity, L1210 cell proliferation; format: cell-based; conditions: mean ± SD of three experiments; highest concentration tested 250 µM; 2 days; read-out: Toxicity (IC50) L1210
# How it was run: (§2)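 Test compounds, serially diluted, received an equal volume of cell suspension at 300,000–500,000 cells/mL. After 37°C incubation (2 days for L1210, 3 for CEM, 4 for HeLa), cells were enumerated by Coulter counting and 50%-inhibitory concentrations calculated per cell type.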
# [2] = test system: human T-lymphocyte (CEM) cells; experiment: Cytostatic activity, CEM cell proliferation; format: cell-based; conditions: mean ± SD of three experiments; highest concentration tested 250 µM; 3 days; read-out: Toxicity (IC50) CEM
# How it was run: as §2
# [3] = test system: human cervix carcinoma (HeLa) cells; experiment: Cytostatic activity, HeLa cell proliferation; format: cell-based; conditions: mean ± SD of three experiments; highest concentration tested 250 µM; 4 days; read-out: Toxicity (IC50) HeLa
# How it was run: as §2
# [4] = test system: L1210, CEM and HeLa cell lines; experiment: Cytostatic activity, average or summary over L1210, CEM and HeLa; format: cell-based
# How it was run: as §2
# [5] = test system: S. aureus VSSA (ATCC 6538); experiment: MIC, broth microdilution, vancomycin-sensitive S. aureus (VSSA/MSSA, ATCC 6538); format: cell-based, Staphylococcus aureus
# How it was run: as §1
# S. aureus VISA/HIP5827 = experiment: MIC, broth microdilution, vancomycin-intermediate S. aureus VISA HIP5827; format: cell-based, Staphylococcus aureus
# How it was run: as §1
# S. aureus VRSA = experiment: MIC, broth microdilution, vancomycin-resistant S. aureus (VRSA); format: cell-based, Staphylococcus aureus
# How it was run: as §1
# MRSA KS2 = experiment: MIC, broth microdilution, MRSA KS2; format: cell-based, Staphylococcus aureus
# How it was run: as §1
# MRSA KS6 = experiment: MIC, broth microdilution, MRSA KS6; format: cell-based, Staphylococcus aureus
# How it was run: as §1
# MRSA KS89 = experiment: MIC, broth microdilution, MRSA KS89; format: cell-based, Staphylococcus aureus
# How it was run: as §1
# MRSA KS1 = experiment: MIC, broth microdilution, MRSA KS1; format: cell-based, Staphylococcus aureus
# How it was run: as §1
# 33 clinical VRE isolates = experiment: MIC against a set of 33 clinical VRE isolates (range, MIC50, TI); format: cell-based, Enterococcus faecalis
# How it was run: as §1
# [6] = test system: 24 clinical MRSA isolates; experiment: MIC against a set of 24 clinical MRSA isolates (range, MIC50, TI); format: cell-based, Staphylococcus aureus
# How it was run: as §1
# [7] = test system: Clostridium difficile ATJ ribotype 014/20; experiment: MIC, plate drop assay, C. difficile ATJ ribotype 014/20; format: cell-based; conditions: for MIC-fold improvement vs. vancomycin: C. difficile ATJ ribotype 014/20
# How it was run: (§3)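 Lawns of each strain were made in soft BHI agar (0.4%) supplemented with CaCl2⋅2H2O and MgCl2⋅6H2O. Twofold compound dilutions (10 μL) were spotted, air-dried and incubated overnight at 37°C anaerobically; MIC read as cleared spots, in triplicate with water as negative control.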
# [8] = test system: Clostridium difficile AIU ribotype 027; experiment: MIC, plate drop assay, C. difficile AIU ribotype 027; format: cell-based; conditions: for MIC-fold improvement vs. vancomycin: C. difficile AIU ribotype 027
# How it was run: as §3
# VE 148 (VanB) = experiment: MIC, VanB-type VRE strain VE 148; format: cell-based, Enterococcus; conditions: VE 148, VanB; read-out: MIC
# How it was run: as §1
# VE 149 (VanB) = experiment: MIC, VanB-type VRE strain VE 149; format: cell-based, Enterococcus; conditions: VE 149, VanB; read-out: MIC
# How it was run: as §1
# VE 150 (VanB) = experiment: MIC, VanB-type VRE strain VE 150; format: cell-based, Enterococcus; conditions: VE 150, VanB; read-out: MIC
# How it was run: as §1
# VE 152 (VanB) = experiment: MIC, VanB-type VRE strain VE 152; format: cell-based, Enterococcus; conditions: VE 152, VanB; read-out: MIC
# How it was run: as §1
# VE 157 (VanB) = experiment: MIC, VanB-type VRE strain VE 157; format: cell-based, Enterococcus; conditions: VE 157, VanB; read-out: MIC
# How it was run: as §1
# VE 82 (VanC1) = experiment: MIC, VanC1-type VRE strain VE 82; format: cell-based, Enterococcus gallinarum; conditions: VE 82, VanC1; read-out: MIC
# How it was run: as §1
# MRSA = experiment: Minimum bactericidal concentration against MRSA; format: cell-based, Staphylococcus aureus
# Procedure: Plates were incubated overnight at 37°C and colony growth was inspected.
compound,measurement,setting,value
CNC(CC(C)C)C(=O)NC1C(=O)NC(CC(N)=O)C(=O)NC2C(=O)NC3C(=O)NC(C(=O)NC(C(=O)NCCCNC(=O)c4ccc5cc(NS(=O)(=O)c6ccc(C(C)C)cc6)ccc5c4)c4cc(O)cc(O)c4-c4cc3ccc4O)C(O)c3ccc(c(Cl)c3)Oc3cc2cc(c3OC2OC(CO)C(O)C(O)C2OC2CC(C)(N)C(O)C(C)O2)Oc2ccc(cc2Cl)C1O (stereo not drawn) [Vanc-66],MIC,"E. faecalis VSE 1; Enterococcus faecalis VSE 1 (vancomycin-sensitive), read-out: MIC",0.39 µM
same,MIC-fold improvement vs. vancomycin,"E. faecalis VSE 1; VSE 1, ratio of MIC of vancomycin and MIC of analogue",4
same,MIC,"E. faecalis VRE 6; Enterococcus faecalis VRE 6 (vancomycin-resistant), read-out: MIC",1.56 µM
same,MIC-fold improvement vs. vancomycin,"E. faecalis VRE 6; VRE 6, ratio of MIC of vancomycin and MIC of analogue",128
same,MIC,"E. faecalis VRE 53; Enterococcus faecalis VRE 53 (vancomycin-resistant), read-out: MIC",25 µM
same,MIC-fold improvement vs. vancomycin,"E. faecalis VRE 53; VRE 53, ratio of MIC of vancomycin and MIC of analogue",16
same,MIC,"E. faecalis VRE 29; Enterococcus faecalis VRE 29 (vancomycin-resistant), read-out: MIC",3.13 µM
same,MIC-fold improvement vs. vancomycin,"E. faecalis VRE 29; VRE 29, ratio of MIC of vancomycin and MIC of analogue",128
same,MIC,"E. faecalis VRE 37; Enterococcus faecalis VRE 37 (vancomycin-resistant), read-out: MIC",3.13 µM
same,MIC-fold improvement vs. vancomycin,"E. faecalis VRE 37; VRE 37, ratio of MIC of vancomycin and MIC of analogue",128
same,IC50,[1],> 250 µM
same,IC50,[2],243 ± 10 µM
same,IC50,[3],78 ± 49 µM
same,IC50,"[4]; average IC50 used for TI in Table S5, >250 entered as 250, read-out: IC50",190 µM
same,IC50,"[4]; average of L1210, CEM and HeLa, read-out: Toxicity (IC50) Average",190 µM
same,MIC,"[5]; Staphylococcus aureus VSSA, read-out: MIC",0.78 µM
same,MIC-fold improvement vs. vancomycin,"[5]; VSSA, ratio of MIC of vancomycin and MIC of analogue",1
same,MIC,"S. aureus VISA/HIP5827; Staphylococcus aureus VISA/HIP5827, read-out: MIC",0.78 µM
same,MIC-fold improvement vs. vancomycin,"S. aureus VISA/HIP5827; VISA/HIP5827, ratio of MIC of vancomycin and MIC of analogue",8
same,MIC,"S. aureus VRSA; Staphylococcus aureus VRSA, read-out: MIC",0.39 µM
same,MIC-fold improvement vs. vancomycin,"S. aureus VRSA; VRSA, ratio of MIC of vancomycin and MIC of analogue",256
same,MIC-fold improvement vs. vancomycin,"MRSA KS2; MRSA KS2, ratio of MIC of vancomycin and MIC of analogue",2
same,MIC,"MRSA KS2; Staphylococcus aureus MRSA KS2, read-out: MIC",0.39 µM
same,MIC-fold improvement vs. vancomycin,"MRSA KS6; MRSA KS6, ratio of MIC of vancomycin and MIC of analogue",4
same,MIC,"MRSA KS6; Staphylococcus aureus MRSA KS6, read-out: MIC",0.20 µM
same,MIC-fold improvement vs. vancomycin,"MRSA KS89; MRSA KS8, ratio of MIC of vancomycin and MIC of analogue",2
same,MIC,"MRSA KS89; Staphylococcus aureus MRSA KS8, read-out: MIC",0.39 µM
same,MIC-fold improvement vs. vancomycin,"MRSA KS1; MRSA KS1, ratio of MIC of vancomycin and MIC of analogue",1
same,MIC,"MRSA KS1; Staphylococcus aureus MRSA KS1, read-out: MIC",0.78 µM
same,MIC Range,33 clinical VRE isolates; 33 clinical VRE isolates,1.56 to 12.5 µM
same,TI (IC50/MIC50),"33 clinical VRE isolates; in vitro therapeutic index, VRE",61
same,MIC50,"33 clinical VRE isolates; median MIC, 33 clinical VRE isolates, read-out: MIC50",3.13 µM
same,MIC Range,[6]; 24 clinical MRSA isolates,0.20 to 3.13 µM
same,TI (IC50/MIC50),"[6]; in vitro therapeutic index, MRSA",238
same,MIC50,"[6]; median MIC, 24 clinical MRSA isolates, read-out: MIC50",0.78 µM
same,MIC-fold improvement vs. vancomycin,[7],up to 45
same,MIC,"[7]; C. difficile ATJ ribotype 014/20, plate drop assay",0.78 µM
same,MIC-fold improvement vs. vancomycin,[7]; listed as Vanc- 66,45
same,MIC-fold improvement vs. vancomycin,[8],≤ 58
same,MIC,"[8]; C. difficile AIU ribotype 027, plate drop assay",0.78 µM
same,MIC-fold improvement vs. vancomycin,[8]; listed as Vanc- 66,58
same,MIC,VE 148 (VanB),1.56 µM
same,MIC,VE 149 (VanB),0.78 µM
same,MIC,VE 150 (VanB),0.78 µM
same,MIC,VE 152 (VanB),0.78 µM
same,MIC,VE 157 (VanB),0.78 µM
same,MIC,VE 82 (VanC1),0.78 µM
same,MBC relative to MIC,MRSA,MBC equaling their MIC values
